Laboratory results: paper PMC7527546 (Current Radiopharmaceuticals, 2020)
Read-outs that look alike come from different tables or passages of the source.

Experiments:
[1] = system: athymic mice bearing human prostate C4-2 cancer xenografts; assay type: in vivo; settings: for 224Ra %ID/g: 224Ra measured 2 h after i.v. injection of the named 224Ra-solution; for %ID/g of 212Pb without 212Pb ingrowth from 224Ra: 2 h after i.v. injection of the 224Ra-solution
[2] = in mice; cited from earlier work
[3] = in man; cited from earlier work

SMILES: NC(=O)CN1CCN(CC(N)=O)CCN(CC(N)=O)C(Cc2ccc(NC(=S)NCC3CCC(C(=O)NC(Cc4ccc5ccccc5c4)C(=O)NCCCCC(NC(=O)NC(CCC(=O)O)C(=O)O)C(=O)O)CC3)cc2)CN(CC(N)=O)CC1 (centres unmarked) [NG001, p-SCN-Bn-TCMC-PSMA ligand]
- lower kidney uptake compared with [212Pb]Pb-PSMA-617 ([1]; 2 h after injection): 3.5 fold

SMILES: [Cl][212Pb][Cl] [[212Pb]PbCl2]
- tumour-to-kidney ratio ([1]; 2 h after i.v. injection of the 224Ra-solutions): 0.04
- 224Ra %ID/g ([1]; Femur): 19.40±1.97 %ID/g
- %ID/g of 212Pb without 212Pb ingrowth from 224Ra ([1]; Kidneys): 48.47±7.57 %ID/g
- 224Ra %ID/g ([1]; Skull): 19.62±1.28 %ID/g
- %ID/g of 212Pb without 212Pb ingrowth from 224Ra ([1]; Tumour (C4-2 xenograft)): 1.71±1.29 %ID/g

SMILES: [Ra] [radium]
- renal clearance of radium [2]: about 70%
- radium excreted by intestinal clearance [3]: more than 90%
